Data: patent US10711036B2, “MALT1 inhibitors and uses thereof” (Cornell University, priority 2015, dated 2020)
Where a SMILES comes first, the peptide text is derived from it. [ ]: non-standard residue; d: D form. The star is where a group is joined. NMeV = CN[C@H](C(=O)O)C(C)C; ClZ = O=C(OCc1ccccc1Cl)*; CH2F = FC*

Assays:
MALT1 = MALT1 (Homo sapiens (Human), UniProt Q9UDY8); assay: Inhibition constants (Ki) for inhibition of MALT1; format: biochemical; conditions: 100 nM MALT1 used for the assay
Protocol: For exemplary compounds of the disclosure, Ki for inhibition of MALT1 was measured (Table E11). A concentration of 100 nM MALT1 was used for the assay.

OCI-LY3 = assay: Cell growth inhibition assay (CellTiter-Glo, 96 hours), OCI-LY3; format: cell-based, human; conditions: OCI-LY3 cells, treated at t=0 and t=48 hours, ATP luminescence
Protocol: DLBCL cell lines were grown in exponential growth conditions during the 96 hours of treatment. Cells were treated twice: at t=0 and t=48 hours, and cell viability was determined by ATP quantification using a luminescent method ([…]-GLO, Promega, Madison, Wis.). Cell viability in drug-treated cells was normalized to vehicle controls (fractional viability) and results are given as 1-fractional viability.
Experiments were Performed in Triplicate.

Chain of MALT1 (Q9UDY8 whole entry): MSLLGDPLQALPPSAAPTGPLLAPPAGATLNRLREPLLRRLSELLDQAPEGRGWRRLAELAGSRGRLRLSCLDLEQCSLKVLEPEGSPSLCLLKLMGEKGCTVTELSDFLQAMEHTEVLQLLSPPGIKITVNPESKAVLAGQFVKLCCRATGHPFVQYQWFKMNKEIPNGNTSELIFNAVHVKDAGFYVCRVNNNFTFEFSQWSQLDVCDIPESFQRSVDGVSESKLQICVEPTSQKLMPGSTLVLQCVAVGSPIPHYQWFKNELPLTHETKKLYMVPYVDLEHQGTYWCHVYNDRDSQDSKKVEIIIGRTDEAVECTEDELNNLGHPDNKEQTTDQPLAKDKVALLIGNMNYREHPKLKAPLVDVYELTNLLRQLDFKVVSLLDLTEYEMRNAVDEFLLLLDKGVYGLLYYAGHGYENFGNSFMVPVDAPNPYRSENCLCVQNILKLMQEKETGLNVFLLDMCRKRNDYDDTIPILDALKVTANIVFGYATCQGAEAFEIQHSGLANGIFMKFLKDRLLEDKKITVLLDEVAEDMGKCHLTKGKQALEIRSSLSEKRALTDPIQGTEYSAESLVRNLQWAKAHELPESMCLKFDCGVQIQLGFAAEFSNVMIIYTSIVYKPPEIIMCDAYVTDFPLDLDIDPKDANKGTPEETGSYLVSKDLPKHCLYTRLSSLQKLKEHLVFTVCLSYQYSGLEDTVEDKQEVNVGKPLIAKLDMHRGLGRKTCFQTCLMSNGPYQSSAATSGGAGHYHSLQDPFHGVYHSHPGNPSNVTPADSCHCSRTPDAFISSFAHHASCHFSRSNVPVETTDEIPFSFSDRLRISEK

| Compound | Ki (MALT1) [nM] | GI50 (OCI-LY3; Homo sapiens) [nM] | GI50 (OCI-LY3) [nM] |
| --- | --- | --- | --- |
| CC(C)[C@H](NC(=O)c1ccc(C(F)(F)F)cc1)C(=O)N1CCC[C@H]1C(=O)N[C@@H](CCCNC(=N)N)C(=O)CF [Compound 135] | 132 | 120 | – |
| CC(C)[C@H](NC(=O)c1ccc(Cl)cc1)C(=O)N1CCC[C@H]1C(=O)N[C@@H](CCCNC(=N)N)C(=O)CF [Compound 136] | 67 | 1240 | – |
| CC(C)[C@H](NC(=O)c1ccc(-c2ccccc2)cc1)C(=O)N1CCC[C@H]1C(=O)N[C@@H](CCCNC(=N)N)C(=O)CF [Compound 137] | 30 | 550 | – |
| CC(C)[C@H](NC(=O)c1ccc(Br)s1)C(=O)N1CCC[C@H]1C(=O)N[C@@H](CCCNC(=N)N)C(=O)CF [Compound 138] | – | 1240 | – |
| CC(C)[C@H](NC(=O)c1ncc(-c2ccccc2)s1)C(=O)N1CCC[C@H]1C(=O)N[C@@H](CCCNC(=N)N)C(=O)CF [Compound 139] | 121 | 1750 | – |
| CC(C)[C@H](NC(=O)OCc1ccccc1)C(=O)N[C@@H](CO)C(=O)N[C@@H](CCCNC(=N)N)C(=O)CF [Compound 140] | 64 | 290 | – |
| N=C(N)NCCC[C@H](NC(=O)[C@@H]1CCCN1C(=O)[C@H](Cc1cccnc1)NC(=O)c1ccc(Br)cc1)C(=O)CF [Compound 142] | – | 14100 | – |
| N=C(N)NCCC[C@H](NC(=O)[C@@H]1CCCN1C(=O)[C@@H](NC(=O)c1ccc(Br)cc1)C1CCCCC1)C(=O)CF [Compound 143] | 45 | 130 | – |
| CC(C)[C@H](NC(=O)c1ccc(Br)cc1)C(=O)N1CCCC[C@H]1C(=O)N[C@@H](CCCNC(=N)N)C(=O)CF [Compound 144] | 79 | 460 | – |
| CC(C)[C@H](NC(=O)c1ccc(OC(F)(F)F)cc1)C(=O)N1CCC[C@H]1C(=O)N[C@@H](CCCNC(=N)N)C(=O)CF [Compound 145] | 27 | 700 | – |
| CC(C)[C@H](NC(=O)c1ccc(Br)c(C#N)c1)C(=O)N1CCC[C@H]1C(=O)N[C@@H](CCCNC(=N)N)C(=O)CF [Compound 146] | – | 500 | – |
| CC(C)[C@H](NC(=O)c1ccc(Cl)c(C#N)c1)C(=O)N1CCC[C@H]1C(=O)N[C@@H](CCCNC(=N)N)C(=O)CF [Compound 147] | 24 | 550 | – |
| CC(C)[C@H](NC(=O)c1cccc(OC(F)(F)F)c1)C(=O)N1CCC[C@H]1C(=O)N[C@@H](CCCNC(=N)N)C(=O)CF [Compound 148] | 15 | 530 | – |
| CC(C)[C@H](NC(=O)c1ccc(Br)cc1)C(=O)N[C@@H](CO)C(=O)N[C@@H](CCCNC(=N)N)C(=O)CF [Compound 149] | 64 | – | – |
| CC(C)[C@H](NC(=O)c1ccc2ccccc2c1)C(=O)N1CCC[C@H]1C(=O)N[C@@H](CCCNC(=N)N)C(=O)CF [Compound 152] | 47 | – | – |
| CC(C)c1ccc(C(=O)N[C@H](C(=O)N2CCC[C@H]2C(=O)N[C@@H](CCCNC(=N)N)C(=O)CF)C(C)C)cc1 [Compound 163] | – | 270 | – |
| CC(C)[C@H](NC(=O)Nc1cccc(Cl)c1)C(=O)N1CCC[C@H]1C(=O)N[C@H](CCCNC(=N)N)C(=O)CF [Compound 166] | 557 | – | – |
| CC(C)[C@H](NC(=O)OCc1ccc(Cl)cc1)C(=O)N1CCC[C@H]1C(=O)N[C@@H](CCCNC(=N)N)C(=O)CF [Compound 168] | 32 | – | – |
| CC(C)[C@H](NC(=O)OCc1cccc(Cl)c1)C(=O)N1CCC[C@H]1C(=O)N[C@@H](CCCNC(=N)N)C(=O)CF [Compound 169] | 22 | – | – |
| CC(C)[C@H](NC(=O)OCc1ccccc1Cl)C(=O)N1CCC[C@H]1C(=O)N[C@@H](CCCNC(=N)N)C(=O)CF [Compound 170] (ClZ-Val-Pro-Arg-CH2F) | 27 | – | – |
| N=C(N)NCCC[C@H](NC(=O)[C@@H]1C[C@@H](O)CN1C(=O)[C@@H](NC(=O)c1ccc(Br)cc1)C1CCCCC1)C(=O)CF [Compound 172] | – | 60 | – |
| CC(C)[C@H](NC(=O)c1ccc(Br)cc1)C(=O)N1C[C@H](C#N)C[C@H]1C(=O)N[C@@H](CCCNC(=N)N)C(=O)CF [Compound 177] | 28 | – | – |
| CC(C)[C@H](NC(=O)c1ccc(Br)cc1)C(=O)N[C@@H](C)C(=O)N[C@@H](CCCNC(=N)N)C(=O)CF [Compound 178] | 38 | – | – |
| N=C(N)NCCC[C@H](NC(=O)[C@@H]1CCCN1C(=O)[C@H](CC1CCCCC1)NC(=O)c1ccc(Br)cc1)C(=O)CF [Compound 187] | 122 | – | – |
| CC(C)[C@H](NC(=O)OCc1ccccc1)C(=O)N1CCC[C@H]1C(=O)N[C@@H](CCCNC1=NCCN1)C(=O)CF [Compound 201] | – | – | > 5000 |
| CN[C@H](C(=O)N1CCC[C@H]1C(=O)N[C@@H](CCCNC(=N)N)C(=O)CF)C(C)C [Compound 205] (H-[NMeV]-Pro-Arg-CH2F) | > 200 | – | – |
